By melting point is commonly meant the temperature, or range, at which the solid turns liquid. Broadly, the Ki is a measure of affinity in units of concentration, obtained from inhibition or displacement.

Structures are written as SMILES.

Consider 18 compounds from patent US7491729B2, “3-Substituted 3,4-dihydro-thieno[2,3-d]pyrimidin-4-one derivatives, production and use thereof” (Abbott GmbH & Co. KG, priority 2002, dated 2009).

For one data set, the target named is T1, 5-HT1B receptors (Homo sapiens, UniProt P28222).
T1 construct: expressed in transfected cells; host or cells: HEK293
T1 sequence (P28222 whole entry): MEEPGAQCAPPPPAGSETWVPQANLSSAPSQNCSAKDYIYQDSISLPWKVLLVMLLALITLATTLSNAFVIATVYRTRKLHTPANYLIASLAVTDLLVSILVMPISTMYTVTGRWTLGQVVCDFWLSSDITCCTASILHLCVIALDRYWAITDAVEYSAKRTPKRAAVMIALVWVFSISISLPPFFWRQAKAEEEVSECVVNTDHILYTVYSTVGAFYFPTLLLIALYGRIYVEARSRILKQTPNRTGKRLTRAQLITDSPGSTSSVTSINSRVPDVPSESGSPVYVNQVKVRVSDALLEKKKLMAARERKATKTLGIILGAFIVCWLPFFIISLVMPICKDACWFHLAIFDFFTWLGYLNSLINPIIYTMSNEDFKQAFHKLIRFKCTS
Kind of data set: Receptor binding studies, displacement of (3H)-5-CT on membranes of HEK293 cells expressing 5-HT1B receptors. The following applies: 0.2 nM (3H)-5-CT, 22° C. The protocol:
(§1) HEK293 cells which expressed 5-HT1A or 5-HT1B receptors were cultivated in RPMI 1640 (Life Technologies, Eggenstein, Germany) comprising 10% fetal calf serum. All the culture media were supplemented with 2 mM L-glutamine and 400 mg/l Geneticin G418 (Life Technologies). The cells were grown in a moist atmosphere with 6% CO2 at 37° C. and detached with a buffer comprising 0.0004% EDTA, 0.02% EGTA, 2.68 mM KCl, 1.47 mM KH2PO4, 6.46 mM Na2HPO4 and 136.9 mM NaCl (pH 7.4). The harvested cells were washed once with cold phosphate-buffered Dulbecco's saline solution (PBS), centrifuged (200×g; 10 minutes) and adjusted to a cell density of 10^8 cells per cryovial. After renewed centrifugation, the pellets were resuspended in 1 ml of ice-cold dissolving buffer (5 mM Tris/HCl (pH 7.4), 10% glycerol) and incubated at 4° C. for 30 minutes. The suspension was then centrifuged at 900×g for 10 minutes, the supernatants were removed, and the pellets were stored in liquid nitrogen until used.
(§2) Initially, the affinities of the radio ligands ((^3H)-8-OH-DPAT for 5-HT1A receptors; or (^3H)-5-CT for 5-HT1B receptors) were calculated from saturation plots where triplicate determinations of the specific and nonspecific binding were carried out for each test concentration. Each sample was composed of 50 μg of cellular proteins of the particular membrane preparation, the radio ligand with or without competing compound (5-HT) in a total volume of 0.5 ml. A buffer consisting of 50 mM Tris/HCl (pH 7.4) and 5 mM CaCl2 was used. Incubation was at 22° C. for 9 minutes.
(§3) For Ki determinations, the test compounds were titrated three times in displacement experiments against a fixed concentration of radio ligand ((0.2 nM (^3H)-8-OH-DPAT; or 0.2 nM (^3H)-5-CT). The other test conditions corresponded to those described for the saturation experiments. The total and the nonspecific binding (10 μM 5-HT as competitor of 5-HT1A and 100 μM for 5-HT1B) was determined for each experimental series.
(§4) The incubation for binding and displacement was terminated by filtering and washing the samples on glass fiber filters (GF/B) using a Skatron 7200 cell harvester (Zinsser, Frankfurt, Germany). The sample filters were transferred into scintillation vials comprising 5 ml of scintillator (Ultima Gold XR) and agitated for 1 hour, and then measured in a liquid scintillation counter. Saturation and competition plots were calculated with the aid of a computer program based on LIGAND (Mundson, P J and Reodbard, D; Anal. Biochem. 107, 220 (1980)).

The next data set has as its target T2, 5-HT1A receptors (Homo sapiens, UniProt P08908).
T2 construct: expressed in transfected cells; host or cells: HEK293
T2 sequence (P08908 1-422): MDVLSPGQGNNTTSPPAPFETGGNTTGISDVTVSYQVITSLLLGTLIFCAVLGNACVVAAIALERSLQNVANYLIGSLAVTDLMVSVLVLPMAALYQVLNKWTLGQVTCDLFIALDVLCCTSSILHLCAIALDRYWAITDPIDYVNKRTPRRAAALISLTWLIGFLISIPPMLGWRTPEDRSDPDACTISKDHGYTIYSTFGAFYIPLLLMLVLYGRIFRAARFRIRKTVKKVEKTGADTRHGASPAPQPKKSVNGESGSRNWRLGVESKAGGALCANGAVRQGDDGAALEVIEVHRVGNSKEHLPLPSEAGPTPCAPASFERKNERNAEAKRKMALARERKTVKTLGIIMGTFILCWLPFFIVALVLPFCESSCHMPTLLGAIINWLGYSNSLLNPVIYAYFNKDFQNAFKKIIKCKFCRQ
Description: Receptor binding studies, displacement of (3H)-8-OH-DPAT on membranes of HEK293 cells expressing 5-HT1A receptors. Particulars: 0.2 nM (3H)-8-OH-DPAT, 22° C. As to the method:
as §1, §2, §3, §4

The subject of data set [1] is serotonin release in the cortex. Particulars: after systemic administration; cited from earlier work.

The compound `CN1CCc2c(sc3ncn(CCN4CCN(c5nc6ccccc6s5)CC4)c(=O)c23)C1` [Example 11, 3-{2-[4-(1,3-Benzothiazol-2-yl)piperazin-1-yl]ethyl}-7-methyl-5,6,7,8-tetrahydropyrido[4′,3′:4,5]thieno[2,3-d]pyrimidin-4(3H)-one] returned a melting point of 151 to 153 °C.

`CN1CCc2c(sc3ncn(CCN4CC=C(c5csc6ccccc56)CC4)c(=O)c23)C1` [Example 28, 3-{2-[4-(1-Benzothien-3-yl)-3,6-dihydropyridin-1 (2H)-yl]ethyl}-7-methyl-5,6,7,8-tetrahydropyrido[4′,3′:4,5]thieno[2,3-d]pyrimidin-4(3H)-one]: the Ki on 5-HT1B receptors is 2 nM; at 5-HT1A receptors, 1.3 nM.

In the case of `CN1CCc2c(sc3ncn(CCN4CCN(c5n[nH]c6ccccc56)CC4)c(=O)c23)C1` [Example 13, 3-{2-[4-(1H-Indazol-3-yl)piperazin-1-yl]ethyl}-7-methyl-5,6,7,8-tetrahydropyrido[4′,3′:4,5]thieno[2,3-d]pyrimidin-4(3H)-one], the inhibitory constant (Ki) amounted to 3.5 nM at 5-HT1B receptors and 11.5 nM on 5-HT1A receptors.

Consider `COc1ccc(NC(=O)c2ccc(-c3ccc(-c4noc(C)n4)cc3C)cc2)cc1N1CCN(C)CC1` [GR 127 935], for which the “serotonin release in the cortex” value in data set [1] is reported as “reduced”.

Regarding `CN1CCc2c(sc3ncn(CCN4CC=C(c5c[nH]c6ncccc56)CC4)c(=O)c23)C1` [Example 21, 1-[2-(7-Methyl-4-oxo-5,6,7,8-tetrahydropyrido[4′,3′:4,5]thieno[2,3-d]pyrimidin-3(4H)-yl)ethyl]-4-(1H-pyrrolo[2,3-b]pyridin-3-yl)-1,2,3,6-tetrahydropyridinium acetate], the Ki on 5-HT1B receptors was found to be 1 nM; on 5-HT1A receptors, 14.6 nM.

On to `CN1CCc2c(sc3ncn(CCN4CC=C(c5c[nH]c6ccccc56)CC4)c(=O)c23)C1` [Example 20, 3-{2-[4-(1H-Indol-3-yl)-3,6-dihydropyridin-1(2H)-yl]ethyl}-7-methyl-5,6,7,8-tetrahydropyrido[4′,3′:4,5]thieno[2,3-d]pyrimidin-4(3H)-one], for which the Ki came out at 1 nM on 5-HT1B receptors and 1.2 nM on 5-HT1A receptors.

For the compound `COc1ccc2c(c1)c(C1CCN(CCn3cnc4sc5c(c4c3=O)CCN(C)C5)CC1)cn2C` [Example 16, 4-(5-Methoxy-1-methyl-1H-indol-3-yl)-1-[2-(7-methyl-4-oxo-5,6,7,8-tetrahydropyrido[4′,3′:4,5]thieno[2,3-d]pyrimidin-3(4H)-yl)ethyl]piperidinium chloride], the figures for the Ki at 5-HT1B receptors and on 5-HT1A receptors were 2.3 nM and 1.3 nM, respectively.

As to `COc1ccc2[nH]cc(C3=CCN(CCn4cnc5sc6c(c5c4=O)CCN(C)C6)CC3)c2c1` [Example 32, 3-{2-[4-(5-methoxy-1H-indol-3-yl)-3,6-dihydropyridin-1(2H)-yl]ethyl}-7-methyl-5,6,7,8,-tetrahydropyrido[4′,3′:4,5]thieno[2,3-d]pyrimidin-4(3H)-one], the inhibition constant (Ki) came out at 0.6 nM at 5-HT1B receptors and 0.5 nM on 5-HT1A receptors.

For the compound `CN1CCc2c(sc3ncn(CCN4CCN(c5nc6ccccc6[nH]5)CC4)c(=O)c23)C1` [Example 8, 3-{2-[4-(1H-Benzimidazol-2-yl)piperazin-1-yl]ethyl}-7-methyl-5,6,7,8-tetrahydropyrido[4′,3′:4,5]thieno[2,3-d]pyrimidin-4(3H)-one], the melting point was 227 to 229 °C.

For `COc1ccc2onc(N3CCN(CCn4cnc5sc6c(c5c4=O)CCN(C)C6)CC3)c2c1` [Example 15, 4-(5-Methoxy-1,2-benzisoxazol-3-yl)-1-[2-(7-methyl-4-oxo-5,6,7,8-tetrahydropyrido[4′,3′:4,5]thieno[2,3-d]pyrimidin-3(4H)-yl)ethyl]piperazin-1-ium chloride], the values for the Ki at 5-HT1B receptors and on 5-HT1A receptors were 7.9 nM and 13.7 nM, respectively.

In the case of `CN1CCc2c(sc3ncn(CCN4CCC(c5cc(-c6cccs6)[nH]n5)CC4)c(=O)c23)C1` [Example 24, 1-[2-(7-Methyl-4-oxo-5,6,7,8-tetrahydropyrido[4′,3′:4,5]thieno[2,3-d]pyrimidin-3(4H)-yl)ethyl]-4-[5-(2-thienyl)-1 H-pyrazol-3-yl]piperidinium chloride], the Ki on 5-HT1B receptors worked out at 286 nM; on 5-HT1A receptors, 98.3 nM.

In the case of `CN1CCc2c(sc3ncn(CCN4CCN(c5nsc6ccccc56)CC4)c(=O)c23)C1` [Example 4, 3-{2-[4-(1,2-Benzisothiazol-3-yl)piperazin-1-yl]ethyl}-7-methyl-5,6,7,8-tetrahydropyrido[4′,3′:4,5]thieno[2,3-d]pyrimidin-4(3H)-one], the melting point was in the range of 82 to 84 °C. Further, the Ki on 5-HT1B receptors amounted to 0.9 nM. For the same compound, the Ki on 5-HT1A receptors stood at 1.4 nM.

Consider `Cc1ccc2onc(N3CCN(CCn4cnc5sc6c(c5c4=O)CCN(C)C6)CC3)c2c1` [Example 9, 7-Methyl-3-{2-[4-(5-methyl-1,2-benzisoxazol-3-yl)piperazin-1-ium-1-yl]ethyl}-4-oxo-3,4,5,6,7,8-hexahydropyrido[4′,3′:4,5]thieno[2,3-d]spyrimidin-7-ium dichloride], for which the Ki came to 4.5 nM at 5-HT1B receptors and 6.2 nM on 5-HT1A receptors.

Turning to `CN1CCc2c(sc3ncn(CCN4CCN(c5nsc6cccc(Cl)c56)CC4)c(=O)c23)C1` [Example 5, 3-{2-[4-(4-Chloro-1,2-benzisothiazol-3-yl)piperazin-1-yl]ethyl}-7-methyl-5,6,7,8-tetrahydropyrido[4′,3′:4,5]thieno[2,3-d]pyrimidin-4(3H)-one], the melting point lay in the range of 88 to 89 °C.

Consider `CN1CCc2c(sc3ncn(CCN4CCN(c5nc6ccc(Cl)cc6s5)CC4)c(=O)c23)C1` [Example 7, 3-{2-[4-(6-Chloro-1,3-benzothiazol-2-yl)piperazin-1-yl]ethyl}-7-methyl-5,6,7,8-tetrahydropyrido[4′,3′:4,5]thieno[2,3-]pyrimidin-4(3H)-one], for which the melting point lay within 160 to 162 °C.

Turning to `CN1CCc2c(sc3ncn(CCN4CCN(c5snc6ccccc56)CC4)c(=O)c23)C1` [Example 31, 4-(2,1-Benzisothiazol-3-yl)-1-[2-(7-methyl-4-oxo-5,6,7,8-tetrahydropyrido[4′,3′:4,5]thieno[2,3-d]pyrimidin-3(4H)-yl)ethyl]piperazin-1-ium chloride], the Ki on 5-HT1B receptors stood at 24.3 nM; at 5-HT1A receptors, 42.7 nM.

As to `CN1CCc2c(sc3ncn(CCN4CCN(c5nc6ccccc6o5)CC4)c(=O)c23)C1` [Example 10, 3-{2-[4-(1,3-Benzoxazol-2-yl)piperazin-1-yl]ethyl}-7-methyl-5,6,7,8-tetrahydropyrido[4′,3′:4,5]thieno[2,3-d]pyrimidin-4(3H)-one], the melting point lay within 130 to 132 °C.

Turning to `CN1CCc2c(sc3ncn(CCN4CCN(c5nc6cc(C(F)(F)F)ccc6s5)CC4)c(=O)c23)C1` [Example 6, 7-Methyl-3-(2-{4-[5-(trifluoromethyl)-1,3-benzothiazol-2-yl]piperazin-1-yl}ethyl)-5,6,7,8-tetrahydropyrido[4′,3′:4,5]thieno[2,3-d]pyrimidin-4(3H)-one], the melting point was 166 to 167 °C.
